In ChEMBL document CHEMBL5523761 (J Med Chem, 2024):

Legend:
D(1A) dopamine receptor [1] = target: T1, D(1A) dopamine receptor (Homo sapiens, UniProt P21728)
Description: Binding affinity to D1 receptor (unknown origin) assessed as inhibition constant

D(2) dopamine receptor [2] = target: T2, D(2) dopamine receptor (Homo sapiens, UniProt P14416)
Description: Binding affinity to D2S receptor (unknown origin) assessed as inhibition constant

D(3) dopamine receptor [3] = target: T3, D(3) dopamine receptor (Homo sapiens, UniProt P35462)
Description: Binding affinity to D3 receptor (unknown origin) assessed as inhibition constant

Acetylcholinesterase = Acetylcholinesterase (Homo sapiens, UniProt P22303)
Description: Inhibition of AChE (unknown origin) by Ellman's colorimetric method

Beta-secretase 1 = Beta-secretase 1 (Homo sapiens, UniProt P56817)
Description: Inhibition of BACE1 (unknown origin) by FRET assay

Cholinesterase = Cholinesterase (Homo sapiens, UniProt P06276)
Sequence of Cholinesterase (P06276 whole entry): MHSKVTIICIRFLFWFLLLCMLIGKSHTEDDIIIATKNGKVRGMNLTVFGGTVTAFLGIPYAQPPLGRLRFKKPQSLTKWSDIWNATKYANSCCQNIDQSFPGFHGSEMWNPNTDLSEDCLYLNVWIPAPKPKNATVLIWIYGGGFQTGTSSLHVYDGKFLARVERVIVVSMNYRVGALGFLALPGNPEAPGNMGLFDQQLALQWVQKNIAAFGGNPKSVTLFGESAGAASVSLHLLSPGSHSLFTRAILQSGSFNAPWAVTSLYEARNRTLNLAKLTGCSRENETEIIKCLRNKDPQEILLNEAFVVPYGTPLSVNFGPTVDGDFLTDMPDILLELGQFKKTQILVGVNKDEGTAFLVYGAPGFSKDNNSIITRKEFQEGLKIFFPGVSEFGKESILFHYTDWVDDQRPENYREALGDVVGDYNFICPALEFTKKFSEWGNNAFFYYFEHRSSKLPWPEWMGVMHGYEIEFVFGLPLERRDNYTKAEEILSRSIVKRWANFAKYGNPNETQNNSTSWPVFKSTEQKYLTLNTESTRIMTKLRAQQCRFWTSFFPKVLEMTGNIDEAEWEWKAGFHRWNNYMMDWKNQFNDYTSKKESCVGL
Description: Inhibition of BChE (unknown origin) by Ellman's colorimetric method

D(2) dopamine receptor [4] = target: T2, D(2) dopamine receptor; remark: listed apart in the source
Description: Inhibition of D2 receptor (unknown origin)

D(1A) dopamine receptor [5] = target: T1, D(1A) dopamine receptor; remark: listed apart in the source
Description: Inhibition of D1 receptor (unknown origin)

D(2) dopamine receptor [6] = target: T2, D(2) dopamine receptor; remark: listed apart in the source
Description: Binding affinity to D2 receptor (unknown origin) assessed as inhibition constant

[7] = target: T4, Alpha-1A adrenergic receptor (Homo sapiens, UniProt P35348)
T4 sequence (P35348 whole entry): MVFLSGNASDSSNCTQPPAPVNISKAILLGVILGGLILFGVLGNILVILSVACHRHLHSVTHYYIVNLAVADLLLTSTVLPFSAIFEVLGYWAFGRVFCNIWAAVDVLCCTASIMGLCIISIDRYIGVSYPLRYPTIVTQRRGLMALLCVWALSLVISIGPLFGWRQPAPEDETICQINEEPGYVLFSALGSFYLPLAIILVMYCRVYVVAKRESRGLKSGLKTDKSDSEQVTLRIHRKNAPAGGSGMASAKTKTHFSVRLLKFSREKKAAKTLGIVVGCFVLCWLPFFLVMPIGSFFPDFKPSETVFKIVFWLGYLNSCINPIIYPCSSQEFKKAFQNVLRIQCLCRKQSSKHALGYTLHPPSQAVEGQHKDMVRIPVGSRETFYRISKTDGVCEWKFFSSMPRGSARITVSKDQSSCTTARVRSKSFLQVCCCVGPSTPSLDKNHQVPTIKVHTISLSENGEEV
Description: Binding affinity to alpha1A adrenergic receptor (unknown origin) assessed as inhibition constant

D(2) dopamine receptor [8] = target: T2, D(2) dopamine receptor; remark: listed apart in the source
D(2) dopamine receptor [9] = target: T2, D(2) dopamine receptor; remark: listed apart in the source
D(2) dopamine receptor [10] = target: T2, D(2) dopamine receptor; remark: listed apart in the source
Description: Antagonist activity at D2 receptor (unknown origin)

D(3) dopamine receptor [11] = target: T3, D(3) dopamine receptor; remark: listed apart in the source
Description: Agonist activity at D3 receptor (unknown origin)

[12] = target: T5, Amine oxidase [flavin-containing] B (Homo sapiens, UniProt P27338)
T5 sequence (P27338 whole entry): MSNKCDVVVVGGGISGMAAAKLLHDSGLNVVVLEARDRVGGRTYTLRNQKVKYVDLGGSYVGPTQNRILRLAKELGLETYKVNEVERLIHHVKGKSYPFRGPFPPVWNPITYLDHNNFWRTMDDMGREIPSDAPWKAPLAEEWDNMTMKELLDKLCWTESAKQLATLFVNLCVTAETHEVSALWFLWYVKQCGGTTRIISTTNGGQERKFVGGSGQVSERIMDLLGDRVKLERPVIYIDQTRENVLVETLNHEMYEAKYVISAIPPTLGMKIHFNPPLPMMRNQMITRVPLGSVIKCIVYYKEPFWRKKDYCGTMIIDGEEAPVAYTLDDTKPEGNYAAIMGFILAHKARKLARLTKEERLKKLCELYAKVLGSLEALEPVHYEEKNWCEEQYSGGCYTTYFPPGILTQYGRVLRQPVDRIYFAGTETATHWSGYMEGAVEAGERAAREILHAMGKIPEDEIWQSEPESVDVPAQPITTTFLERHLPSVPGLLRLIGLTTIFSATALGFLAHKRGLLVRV
Description: Inhibition of MAO-B (unknown origin) measured by MAO-GloTM method

[13] = target: T6, Amine oxidase [flavin-containing] A (Homo sapiens, UniProt P21397)
T6 sequence (P21397 whole entry): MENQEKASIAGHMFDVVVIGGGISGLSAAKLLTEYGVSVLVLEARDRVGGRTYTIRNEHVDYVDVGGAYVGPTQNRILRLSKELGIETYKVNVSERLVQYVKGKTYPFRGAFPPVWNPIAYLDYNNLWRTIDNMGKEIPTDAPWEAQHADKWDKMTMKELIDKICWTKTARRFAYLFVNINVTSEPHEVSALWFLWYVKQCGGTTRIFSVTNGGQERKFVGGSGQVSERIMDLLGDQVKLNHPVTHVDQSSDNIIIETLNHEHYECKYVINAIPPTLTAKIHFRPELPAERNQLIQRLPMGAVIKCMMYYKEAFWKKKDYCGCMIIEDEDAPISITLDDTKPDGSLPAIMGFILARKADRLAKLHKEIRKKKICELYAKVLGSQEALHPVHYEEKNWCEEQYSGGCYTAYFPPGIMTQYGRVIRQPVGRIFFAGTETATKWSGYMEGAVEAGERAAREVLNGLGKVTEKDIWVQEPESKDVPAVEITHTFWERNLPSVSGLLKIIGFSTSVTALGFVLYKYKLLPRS
Description: Inhibition of MAO-A (unknown origin) measured by MAO-GloTM method

D(4) dopamine receptor = target: T7, D(4) dopamine receptor (Homo sapiens, UniProt P21917)
T7 sequence (P21917 whole entry): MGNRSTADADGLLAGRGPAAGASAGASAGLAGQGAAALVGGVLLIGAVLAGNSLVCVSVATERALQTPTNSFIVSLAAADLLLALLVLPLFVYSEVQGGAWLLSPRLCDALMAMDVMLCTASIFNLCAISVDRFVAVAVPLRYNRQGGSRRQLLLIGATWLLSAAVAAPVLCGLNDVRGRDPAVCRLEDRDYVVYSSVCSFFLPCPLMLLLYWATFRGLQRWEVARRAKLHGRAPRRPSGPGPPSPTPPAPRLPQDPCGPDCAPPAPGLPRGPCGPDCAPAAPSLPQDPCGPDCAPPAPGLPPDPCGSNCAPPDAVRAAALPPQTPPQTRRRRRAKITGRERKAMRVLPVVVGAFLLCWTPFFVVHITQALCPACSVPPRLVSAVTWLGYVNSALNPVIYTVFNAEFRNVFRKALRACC
Description: Agonist activity at D4 receptor (unknown origin)

T1 sequence (P21728 whole entry): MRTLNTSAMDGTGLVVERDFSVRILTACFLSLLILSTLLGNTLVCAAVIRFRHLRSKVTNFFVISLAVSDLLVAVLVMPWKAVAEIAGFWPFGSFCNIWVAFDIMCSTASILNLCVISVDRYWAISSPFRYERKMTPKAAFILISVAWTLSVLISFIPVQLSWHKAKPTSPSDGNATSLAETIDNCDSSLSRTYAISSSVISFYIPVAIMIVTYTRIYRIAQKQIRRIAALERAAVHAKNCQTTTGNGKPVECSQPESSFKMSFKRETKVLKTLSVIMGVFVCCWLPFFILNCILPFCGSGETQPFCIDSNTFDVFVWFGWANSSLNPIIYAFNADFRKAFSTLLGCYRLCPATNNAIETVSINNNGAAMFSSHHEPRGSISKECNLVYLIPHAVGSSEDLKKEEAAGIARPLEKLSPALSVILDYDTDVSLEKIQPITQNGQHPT
T2 sequence (P14416 whole entry): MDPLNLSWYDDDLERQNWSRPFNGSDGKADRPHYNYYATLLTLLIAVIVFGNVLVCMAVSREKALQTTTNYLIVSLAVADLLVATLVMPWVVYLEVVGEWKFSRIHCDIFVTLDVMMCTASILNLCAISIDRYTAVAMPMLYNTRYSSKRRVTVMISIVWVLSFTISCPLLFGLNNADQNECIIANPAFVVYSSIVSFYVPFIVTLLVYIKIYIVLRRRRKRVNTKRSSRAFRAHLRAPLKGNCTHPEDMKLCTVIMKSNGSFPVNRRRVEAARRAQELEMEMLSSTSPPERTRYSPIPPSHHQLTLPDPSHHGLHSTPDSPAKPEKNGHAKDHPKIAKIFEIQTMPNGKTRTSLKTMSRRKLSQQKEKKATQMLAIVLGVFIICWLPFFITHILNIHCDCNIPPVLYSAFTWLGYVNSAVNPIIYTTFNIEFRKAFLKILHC
T3 sequence (P35462 whole entry): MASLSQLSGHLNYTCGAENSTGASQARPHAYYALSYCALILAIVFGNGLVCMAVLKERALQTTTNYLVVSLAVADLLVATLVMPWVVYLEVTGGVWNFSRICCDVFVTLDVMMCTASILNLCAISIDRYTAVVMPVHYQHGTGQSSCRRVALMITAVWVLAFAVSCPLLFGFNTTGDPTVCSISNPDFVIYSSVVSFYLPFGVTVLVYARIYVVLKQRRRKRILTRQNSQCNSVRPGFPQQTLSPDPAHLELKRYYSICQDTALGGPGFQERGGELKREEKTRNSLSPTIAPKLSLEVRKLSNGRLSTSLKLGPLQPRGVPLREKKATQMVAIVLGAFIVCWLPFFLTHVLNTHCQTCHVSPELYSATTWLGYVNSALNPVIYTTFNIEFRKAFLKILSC
Sequence of Beta-secretase 1 (P56817 whole entry): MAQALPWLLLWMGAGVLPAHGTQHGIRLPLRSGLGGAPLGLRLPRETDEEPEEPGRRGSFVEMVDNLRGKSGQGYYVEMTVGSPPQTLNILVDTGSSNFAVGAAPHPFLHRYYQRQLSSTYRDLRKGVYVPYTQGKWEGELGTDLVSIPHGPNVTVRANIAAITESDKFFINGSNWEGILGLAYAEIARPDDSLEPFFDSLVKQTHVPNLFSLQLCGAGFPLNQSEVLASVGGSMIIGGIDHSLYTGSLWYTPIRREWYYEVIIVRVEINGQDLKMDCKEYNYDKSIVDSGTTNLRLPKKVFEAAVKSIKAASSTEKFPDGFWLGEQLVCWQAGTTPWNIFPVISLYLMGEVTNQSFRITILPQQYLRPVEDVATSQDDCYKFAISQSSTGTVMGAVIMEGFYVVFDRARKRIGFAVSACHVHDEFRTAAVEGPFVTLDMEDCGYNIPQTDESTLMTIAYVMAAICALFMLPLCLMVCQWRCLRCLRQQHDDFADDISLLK
Sequence of Acetylcholinesterase (P22303 whole entry): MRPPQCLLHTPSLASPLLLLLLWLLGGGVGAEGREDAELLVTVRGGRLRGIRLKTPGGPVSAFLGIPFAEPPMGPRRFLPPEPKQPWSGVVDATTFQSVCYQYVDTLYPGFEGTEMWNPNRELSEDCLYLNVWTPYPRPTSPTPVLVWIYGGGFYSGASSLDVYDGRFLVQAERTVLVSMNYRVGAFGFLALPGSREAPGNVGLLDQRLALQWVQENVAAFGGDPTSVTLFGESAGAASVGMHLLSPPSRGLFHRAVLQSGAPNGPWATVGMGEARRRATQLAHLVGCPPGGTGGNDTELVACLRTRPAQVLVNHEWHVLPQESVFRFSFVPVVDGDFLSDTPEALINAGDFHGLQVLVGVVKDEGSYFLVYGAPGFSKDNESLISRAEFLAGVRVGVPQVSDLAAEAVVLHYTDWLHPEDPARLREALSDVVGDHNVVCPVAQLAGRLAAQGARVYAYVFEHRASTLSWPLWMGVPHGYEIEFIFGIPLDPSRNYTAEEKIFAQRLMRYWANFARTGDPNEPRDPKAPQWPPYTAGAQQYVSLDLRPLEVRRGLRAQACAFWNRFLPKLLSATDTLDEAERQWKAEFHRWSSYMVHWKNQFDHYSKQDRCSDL

Q: How did the Ki (D(1A) dopamine receptor [1]) turn out when `COC1=CC2C[C@@H]3c4cc(O)c(OC)cc4CCN3CC2C=C1O` (stereo partly drawn) was run?
A: 8.75 nM

Q: What about the Ki (D(2) dopamine receptor [2]) of the same compound?
A: 708 nM

Q: And the Ki (D(3) dopamine receptor [3])?
A: 606 nM

Q: Which IC50 (Acetylcholinesterase) does the source give for `C=C(C)[C@H](CC=C(C)C)Cc1c(O)cc(OC)c2c1O[C@H](c1ccc(O)cc1O)CC2=O` here?
A: 42100 nM

Q: What about the IC50 (Beta-secretase 1) of the same compound?
A: 24500 nM

Q: And the IC50 (Cholinesterase)?
A: 5290 nM

Q: Which results are given for `COc1cc2c(cc1O)Oc1c(O)ccc3c1[C@H](C2)N(C)CC3` [CELTISINE]?
A: IC50 (D(2) dopamine receptor [4]): 30 nM; IC50 (D(1A) dopamine receptor [5]): 60 nM

Q: `COc1cc2c(cc1OC)Oc1c(O)ccc3c1[C@@H](C2)N(C)CC3` was tested. Which IC50 (D(2) dopamine receptor [4]) did it give?
A: 320 nM

Q: What about the IC50 (D(1A) dopamine receptor [5]) of the same compound?
A: 80 nM

Q: Which results are given for `CCCCC(=O)Oc1cccc2c1-c1cccc3c1[C@@H](C2)N(CCC)CC3`?
A: Ki (D(1A) dopamine receptor [1]): > 20000 nM; Ki (D(2) dopamine receptor [6]): 340 nM

Q: `C=C1CCC[C@]2(C)Cc3occ(C)c3C[C@@H]12` [ATRACTYLON] was tested. Which IC50 (D(2) dopamine receptor [4]) did it give?
A: 2500 nM

Q: For `CC(C)C[C@H]1C(=O)N2CCC[C@H]2[C@]2(O)O[C@](NC(=O)[C@@H]3C=C4c5cccc6[nH]c(Br)c(c56)C[C@H]4N(C)C3)(C(C)C)C(=O)N12` [BROMOCRIPTINE], which Ki (D(1A) dopamine receptor [1]) is on record?
A: 3420 nM

Q: And the Ki [7]?
A: 18 nM

Q: How did the IC50 (D(2) dopamine receptor [8]) turn out when `COc1ccc2cc3[n+](cc2c1OC)CCc1cc2c(cc1-3)OCO2` [BERBERINE CHLORIDE] was run?
A: 38600 nM

Q: And the IC50 (D(2) dopamine receptor [9])?
A: 17100 nM

Q: Which Ki (D(1A) dopamine receptor [1]) does the source give for `CCN1CCc2cc(OCCF)cc3c2[C@H]1Cc1cccc(O)c1-3` here?
A: 0.83 nM

Q: `CCCN1C[C@H](CSC)C[C@@H]2c3cccc4[nH]cc(c34)C[C@H]21` [PERGOLIDE] was tested. Which Ki [7] did it give?
A: 888 nM

Q: Which IC50 (D(2) dopamine receptor [10]) does the source give for `COc1cc2c(cc1O)C[C@H]1c3c(cc(O)c(OC)c3-2)CCN1C` [BOLDINE] here?
A: 520 nM

Q: Which EC50 (D(3) dopamine receptor [11]) does the source give for `Oc1c(O)c(Br)c(COCc2c(Br)c(O)c(O)c(Br)c2Br)c(Br)c1Br` here?
A: 59000 nM

Q: What about the IC50 [12] of the same compound?
A: 103000 nM

Q: And the IC50 [13]?
A: 89300 nM

Q: And the EC50 (D(4) dopamine receptor)?
A: 59000 nM

Q: `CCCN1CCc2cccc3c2[C@H]1Cc1cccc(O)c1-3` was tested. Which Ki (D(1A) dopamine receptor [1]) did it give?
A: 699 nM

Q: With `Oc1cc2c(cc1O)C1Cc3cccc(O)c3CN1CC2` (stereo not drawn) as the compound, how does the Ki (D(1A) dopamine receptor [1]) read?
A: 3800 nM

Q: What about the Ki (D(3) dopamine receptor [3]) of the same compound?
A: 93 nM
